Data: patent publication US20210070748A1, “INHIBITORS OF BRUTONS TYROSINE KINASE” (Pharmacyclics LLC, priority 2015, published 2021)
Where two headings read alike, the source gives them in different places.

Legend:
ITK = target: T1, ITK (Homo sapiens, UniProt Q08881); assay: Inhibition of a panel of kinases, in vitro HotSpot kinase assay: ITK; assay type: biochemical
T1 sequence (Q08881 1-620): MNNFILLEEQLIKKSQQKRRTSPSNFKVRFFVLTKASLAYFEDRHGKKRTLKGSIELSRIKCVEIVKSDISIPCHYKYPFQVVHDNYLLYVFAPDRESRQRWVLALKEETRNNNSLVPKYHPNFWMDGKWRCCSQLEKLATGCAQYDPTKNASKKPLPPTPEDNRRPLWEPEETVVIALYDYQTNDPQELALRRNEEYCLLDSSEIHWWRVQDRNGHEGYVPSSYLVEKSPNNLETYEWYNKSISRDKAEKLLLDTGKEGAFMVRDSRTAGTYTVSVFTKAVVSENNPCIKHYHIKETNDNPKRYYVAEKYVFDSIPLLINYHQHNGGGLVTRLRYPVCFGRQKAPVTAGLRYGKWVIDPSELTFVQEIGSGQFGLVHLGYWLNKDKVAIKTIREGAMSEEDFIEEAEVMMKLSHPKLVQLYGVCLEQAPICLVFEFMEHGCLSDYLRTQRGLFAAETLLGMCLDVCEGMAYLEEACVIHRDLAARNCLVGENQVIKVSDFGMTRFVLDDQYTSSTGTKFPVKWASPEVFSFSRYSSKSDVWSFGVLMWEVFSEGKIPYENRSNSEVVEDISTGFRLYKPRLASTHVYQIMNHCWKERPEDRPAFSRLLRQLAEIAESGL
Experimental: The degree of inhibition of a panel of kinases is determined using the in vitro HotSpot kinase assay (purified enzymes, ^33P-ATP, an appropriate substrate and 1 μM ATP).

BTK-WT = target: T2, BTK-WT (Homo sapiens, UniProt Q06187); assay: Btk in vitro inhibitory activity (one of Method A TR-FRET, Method B electrophoretic mobility shift, Method C radiometric filter binding); assay type: biochemical; conditions: read-out: IC50 BTK-WT
T2 construct: purified from insect cells as a full-length construct containing an N-terminal 6X-His tag; His6 (N); made in house; host or cells: insect cells (baculovirus Sf21 in Method B)
T2 sequence (Q06187 whole entry): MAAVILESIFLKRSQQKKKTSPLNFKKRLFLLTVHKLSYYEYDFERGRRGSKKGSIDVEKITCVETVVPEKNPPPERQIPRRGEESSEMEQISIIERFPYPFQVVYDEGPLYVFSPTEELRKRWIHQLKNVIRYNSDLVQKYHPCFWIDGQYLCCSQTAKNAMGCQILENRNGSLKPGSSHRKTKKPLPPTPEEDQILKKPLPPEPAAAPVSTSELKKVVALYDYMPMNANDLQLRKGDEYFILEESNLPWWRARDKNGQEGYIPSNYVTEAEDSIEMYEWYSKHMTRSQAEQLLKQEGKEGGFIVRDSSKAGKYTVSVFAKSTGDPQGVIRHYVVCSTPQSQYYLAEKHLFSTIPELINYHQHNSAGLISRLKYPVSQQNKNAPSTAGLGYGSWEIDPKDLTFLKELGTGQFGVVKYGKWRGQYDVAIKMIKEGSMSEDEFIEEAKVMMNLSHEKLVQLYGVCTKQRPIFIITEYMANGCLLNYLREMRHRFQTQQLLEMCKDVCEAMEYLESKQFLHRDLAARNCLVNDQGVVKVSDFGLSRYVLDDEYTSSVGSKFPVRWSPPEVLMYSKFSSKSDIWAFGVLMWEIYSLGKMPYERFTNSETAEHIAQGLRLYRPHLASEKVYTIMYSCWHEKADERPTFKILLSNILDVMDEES

[1] = Table 15, C compounds, 1 μM ATP

| IC50 (ITK; [1]) [nM] | IC50 (BTK-WT; Table 15, C compounds) [nM] | IC50 (ITK; E compounds, Table 17) [nM] | IC50 (BTK-WT; E compounds, Table 17) [nM] | SMILES |
| --- | --- | --- | --- | --- |
| 100 to 1000 | ≤ 10 | – | – | C=CC(=O)N1CCCC[C@H](Nc2nnc(C(N)=O)c(Nc3ccc(C(C)C)cc3)n2)C1 [Example C-35, (S)-3-(1-acryloylazepan-3-ylamino)-5-(4-isopropylphenylamino)-1,2,4-triazine-6-carboxamide] |
| – | – | 100 to 1000 | 10 to 100 | C=CC(=O)N[C@@H]1CCCN(c2nnc(C(N)=O)c(Nc3ccc(C(C)C)cc3)n2)C1 [Example E-21, (R)-3-(3-acrylamidopiperidin-1-yl)-5-(4-isopropylphenylamino)-1,2,4-triazine-6-carboxamide] |
| – | – | ≤ 10 | ≤ 10 | C=CC(=O)N1CCC(C)(c2ccc(Nc3nc(N[C@@H]4CCCN(C(=O)C=C)C4)nnc3C(N)=O)cc2)CC1 [Example E-32, (R)-5-(4-(1-acryloyl-4-methylpiperidin-4-yl)phenylamino)-3-(1-acryloylpiperidin-3-ylamino)-1,2,4-triazine-6-carboxamide] |
| 10 to 100 | ≤ 10 | – | – | C=CC(=O)N1CCC[C@@H](Nc2nnc(C(N)=O)c(Nc3ccc(C4CC4)cc3)n2)C1 [Example C-47, (R)-3-(1-acryloylpiperidin-3-ylamino)-5-(4-cyclopropylphenyl-amino)-1,2,4-triazine-6-carboxamide] |
| 100 to 1000 | ≤ 10 | – | – | C=CC(=O)N1CCC[C@H](Nc2cnc(C(N)=O)c(Nc3ccc(C(C)C)cc3)n2)C1 [Example C-37, (S)-5-(1-acryloylpiperidin-3-ylamino)-3-(4-isopropylphenylamino) pyrazine-2-carboxamide] |
| – | – | 100 to 1000 | ≤ 10 | C=CC(=O)N[C@H]1CCCC[C@@H]1Nc1nnc(C(N)=O)c(Nc2ccc(C(C)C)cc2)n1 [Example E-29, 3-((1S,2S)-2-acrylamidocyclohexyl-amino)-5-(4-isopropylphenylamino)-1,2,4-triazine-6-carboxamide] |
| 10 to 100 | ≤ 10 | – | – | C=CC(=O)N1CCC[C@@H](Nc2nnc(C(N)=O)c(Nc3cccc(C)c3)n2)C1 [Example C-55, (R)-3-(1-acryloylpiperidin-3-ylamino)-5-(m-tolylamino)-1,2,4-triazine-6-carboxamide] |
| – | – | 10 to 100 | ≤ 10 | C=CC(=O)N1CCC[C@@H](Nc2nnc(C(N)=O)c(Nc3cccc(-c4nccs4)c3)n2)C1 [Example E-70, (R)-3-(1-acryloylpiperidin-3-ylamino)-5-(3-(thiazol-2-yl)phenylamino)-1,2,4-triazine-6-carboxamide] |
| – | – | ≤ 10 | ≤ 10 | C=CC(=O)N1CCC[C@@H](Nc2nnc(C(N)=O)c(Nc3ccc(CN[C@@H](C)C(C)(C)C)cc3)n2)C1 [Example E-57, 3-((R)-1-acryloylpiperidin-3-ylamino)-5-(4-(((S)-3,3-dimethylbutan-2-ylamino)methyl)phenyl-amino)-1,2,4-triazine-6-carboxamide] |
| – | – | 100 to 1000 | ≤ 10 | C=CC(=O)N1CCC[C@@H](N(C(=O)C=C)c2nnc(C(N)=O)c(Nc3ccc(C4(C#N)CC4)cc3)n2)C1 [Example E-39, (R)-3-(N-(1-acryloylpiperidin-3-yl)acrylamido)-5-(4-(1-cyanocyclopropyl)phenylamino)-1,2,4-triazine-6-carboxamide] |
| 100 to 1000 | ≤ 10 | – | – | C=CC(=O)N1CCC[C@H](Nc2cnc(C(N)=O)c(Nc3ccc(-c4ncccn4)cc3)n2)C1 [Example C-36, (S)-5-(1-acryloylpiperidin-3-ylamino)-3-(4-(pyrimidin-2-yl)phenylamino) pyrazine-2-carboxamide] |
| – | – | 100 to 1000 | ≤ 10 | C=CC(=O)N[C@H]1CCC[C@@H](Nc2nnc(C(N)=O)c(Nc3ccc(C(C)C)cc3)n2)C1 [Example E-59, 3-((1R,3S)-3-acrylamidocyclohexyl-amino)-5-(4-isopropylphenylamino)-1,2,4-triazine-6-carboxamide] |
| – | – | 100 to 1000 | ≤ 10 | C=CC(=O)N[C@@H]1CCCC[C@H]1Nc1nnc(C(N)=O)c(Nc2ccc(C(C)C)cc2)n1 [Example E-28, 3-((1R,2R)-2-acrylamidocyclo-hexylamino)-5-(4-isopropylphenylamino)-1,2,4-triazine-6-carboxamide] |
| ≤ 10 | ≤ 10 | – | – | CN(c1cnc(C(N)=O)c(Nc2ccc(C3(C)CCN(C4CCCC4)CC3)cc2)n1)[C@@H]1CCN(C(=O)C(F)(F)F)C1 [Example C-68, (R)-3-(4-(1-cyclopentyl-4-methylpiperidin-4-yl)phenylamino)-5-(methyl(1-(2,2,2-trifluoroacetyl)pyrrolidin-3-yl)amino)pyrazine-2-carboxamide] |
| – | – | ≤ 10 | ≤ 10 | C=CC(=O)N1CCCC[C@@H](Nc2nnc(C(N)=O)c(Nc3ccc(C(C)C)cc3)n2)C1 [Example E-20, (R)-3-(1-acryloylazepan-3-ylamino)-5-(4-isopropylphenylamino)-1,2,4-triazine-6-carboxamide] |
| ≤ 10 | ≤ 10 | – | – | CN(c1cnc(C(N)=O)c(Nc2ccc(C3(C)CCN(C4CC4)CC3)cc2)n1)[C@@H]1CCN(C(=O)C(F)(F)F)C1 [Example C-66, (R)-3-(4-(1-cyclopropyl-4-methylpiperidin-4-yl)phenylamino)-5-(methyl(1-(2,2,2-trifluoroacetyl)pyrrolidin-3-yl)amino)pyrazine-2-carboxamide] |
| – | – | 100 to 1000 | ≤ 10 | C=CC(=O)N[C@@H]1CCC[C@@H](Nc2nnc(C(N)=O)c(Nc3ccc(C(C)C)cc3)n2)C1 [Example E-58, 3-((1R,3R)-3-acrylamidocyclohexyl-amino)-5-(4-isopropylphenylamino)-1,2,4-triazine-6-carboxamide] |
| ≤ 10 | ≤ 10 | – | – | C=CC(=O)N1CCCC[C@@H](Nc2nnc(C(N)=O)c(Nc3ccc(C(C)C)cc3)n2)C1 [Example C-38, (R)-3-(1-acryloylazepan-3-ylamino)-5-(4-isopropylphenylamino)-1,2,4-triazine-6-carboxamide] |
| ≤ 10 | ≤ 10 | – | – | C=CC(=O)N1CCC[C@@H](Nc2nnc(C(N)=O)c(Nc3ccc(C4(C#N)CC4)cc3)n2)C1 [Example C-48, (R)-3-(1-acryloylpiperidin-3-ylamino)-5-(4-(1-cyanocyclopropyl)phenylamino)-1,2,4-triazine-6-carboxamide] |
| 10 to 100 | ≤ 10 | – | – | C=CC(=O)N1CCC[C@@H](Nc2nnc(C(N)=O)c(Nc3ccc(C(C)C)cc3)n2)[C@@H]1C (racemic) [Example C-33, 3-((2S,3R)-1-acryloyl-2-methylpiperidin-3-ylamino)-5-(4-isopropylphenylamino)-1,2,4-triazine-6-carboxamide] |
| 100 to 1000 | ≤ 10 | – | – | C=CC(=O)N1CCC[C@@H](N(C(=O)C=C)c2nnc(C(N)=O)c(Nc3ccc(C4(C#N)CC4)cc3)n2)C1 [Example C-50, (R)-3-(N-(1-acryloylpiperidin-3-yl)acrylamido)-5-(4-(1-cyanocyclopropyl)phenylamino)-1,2,4-triazine-6-carboxamide] |
